# Experimental data from patent US10300000B2, “Inhibition of melanogenesis by chemically modified curcumins” (The Research Foundation for The State University of New York, priority 2016, dated 2019).
# Read-outs that look alike come from different tables or passages of the source.
# How the values were obtained:
# [1] = system: αMSH-stimulated B16F10 cells; experiment: Melanin content in αMSH-stimulated B16F10 cells; format: cell-based, mouse; set-up: dose or concentration left out as unconfirmed; conditions: αMSH-stimulated B16F10, 48 hours
# Method: B16F10 cells were seeded at 1×10^5 cells/well in 12-well plates and incubated for 24 hours. The test compounds were then added in presence or absence of αMSH (100 nM), and further incubated for another 48 hours. For evaluation of melanin content, cells were trypsinized, washed in PBS and then 250 μL of 1N NaOH was added and heated to 70° C. to solubilize melanin. The aliquots were then transferred to a 96-well plate and absorbance was read at 475 nm using microplate reader. The absorbance of melanin was normalized by total protein contents and reported as % of control.
# HEM-DP cells [2] = experiment: Melanin content quantification in human epidermal melanocytes; format: cell-based; conditions: 48 hours
# Method: Primary cultures of human epidermal melanocytes from a darkly pigmented donor were seeded at 2.2×10^5 cells/well in 1.5 ml media in 12-well plates and incubated for 48 hours. The test compounds were added to cultures and controls were treated with 0.16% DMSO, and further incubated for another 48 hours. For evaluation of melanin content, cells in the wells were trypsinized and cell pellets were washed in PBS. After aspiration, 250 μL of 1N NaOH was added and heated to 70° C. to solubilize melanin. The aliquots were then transferred to a 96-well plate and absorbance was read at 475 nm using microplate reader. A portion of the lysate was used to evaluate total protein content using […] bincinchonic acid (BCA) assay (Pierce BCA kit, Thermo Scientific). The absorbance of melanin was normalized to the total protein content for each lysate and reported as % of control.
# [3] = molecular target: T1, cellular tyrosinase in HEM-DP cells (Homo sapiens, UniProt P14679); experiment: Intracellular tyrosinase activity in human melanocytes; format: cell-based; conditions: 48 hours
# T1 construct: endogenous in cells; host or cells: HEM-DP (primary human epidermal melanocytes, darkly pigmented donor)
# T1 sequence (P14679 19-529): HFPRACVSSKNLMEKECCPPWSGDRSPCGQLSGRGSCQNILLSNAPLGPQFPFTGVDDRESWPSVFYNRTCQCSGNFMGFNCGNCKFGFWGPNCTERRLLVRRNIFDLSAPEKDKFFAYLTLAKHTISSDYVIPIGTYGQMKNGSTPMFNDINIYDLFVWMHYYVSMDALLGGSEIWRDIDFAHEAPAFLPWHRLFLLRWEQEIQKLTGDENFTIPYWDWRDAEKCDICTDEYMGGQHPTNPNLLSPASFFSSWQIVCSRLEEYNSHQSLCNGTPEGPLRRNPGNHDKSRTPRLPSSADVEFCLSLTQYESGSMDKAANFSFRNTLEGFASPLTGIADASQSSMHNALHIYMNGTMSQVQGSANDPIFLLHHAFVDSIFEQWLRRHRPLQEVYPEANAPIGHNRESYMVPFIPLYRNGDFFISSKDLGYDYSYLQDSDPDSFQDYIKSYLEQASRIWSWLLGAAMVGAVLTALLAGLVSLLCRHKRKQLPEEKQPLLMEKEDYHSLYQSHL
# Method: We quantitated the cellular tyrosinase activity of human melanocytes based on established methods. Briefly, human epidermal melanocytes from a darkly pigmented donor (HEM-DP) were cultured in 12-well tissue culture plates at density of 1.5×10^5 cells/well. After 48 hrs. media was changed and test compounds were added, and further incubated for 48 hrs. At the end of treatments, cells were trypsinized and cell pellets were washed in PBS and lysed with lysis buffer under ice for 30 minutes and then centrifuged to remove cellular debris. 50 μl of lysates were then aliquoted in 96-well microplate and 150 μl of freshly prepared 3 mM L-DOPA was added. The absorbance was then measured kinetically at 475 nm every 30 seconds for 30 minutes at 30° C. using microplate reader (Versamax®). The % inhibition of tyrosinase activity was calculated by determining melanin formation rates from the linear range of the slopes of melanin formation over time for the different samples and calculating % inhibition from the measured velocities of melanin formation.
# MITF = MITF protein levels by cell-based ELISA in B16F10 cells; set-up: species or system mouse; conditions: B16F10, 10 μM, 48 hours
# Method: MITF is the master regulator of melanogenesis and a known transcription factor for tyrosinase gene. The effects of PC and CMCs on micropthalmia transcription factor (MITF) proteins levels were assayed using a cell-based ELISA (LifeSpan Biosciences, Seattle). Briefly, B16F10 cells were cultured in a 96-well plate at 1×10^4 cells/well for 24 hours and then media was replaced with fresh media containing compounds in 0.1% DMSO for further 48 hours. The cells were then fixed and subsequent steps were conducted based on manufacturer instructions. The absorbance of MITF expression levels were normalized by absorbance of crystal violet stain (0.05%) and data was reported as % of control.
# [4] = system: normal human dermal fibroblasts (NHDF); experiment: MTS cytotoxicity test with human dermal fibroblasts; conditions: 48 hours
# Method: Briefly 5×10^3 cells/well were plated in 96 wells and compounds added for 48 hours. MTS assay was then conducted and plate incubated for 1 hour and then 100 μl of supernatants were aliquoted into 96 well plates and absorbance read at 490 nm using Versamax microplate reader.
# [5] = system: intracellular ROS in B16F10 cells; experiment: Intracellular ROS assay (H2DCFDA) in B16F10 cells; format: cell-based, mouse; conditions: 48 hours
# Method: Intracellular ROS generation was quantified using 2′,7′-dichlorodihydrofluorescein diacetate (H2DCFDA), a non-fluorescent dye which is trapped intracellularly by cleavage by intracellular esterases after reaction with reactive oxygen species (ROS); only the product, DCF, is fluorescent. For measuring intracellular ROS, B16F10 cells were seeded in 24 well plates at 4×10^4 cells/well. After 24 hours, media was aspirated and PC, THC and CMCs were added to the wells at different concentrations and further incubated for 48 hours. At the end of the incubations, the media was aspirated and cells were washed with PBS. DCFDA (Molecular Probes) was dissolved in DMSO to make 10 mM stock. DCFDA dye working stock (50 μM) was prepared by diluting the stock in DMEM (serum-free, phenol-red free and sodium pyruvate free) media and added to cells and further incubated for 45 minutes at 37° C. The cells were then washed with DPBS and fluorescence was read in bottom read mode, using a fluorescence microplate reader (Gemini EM Spectramax, Molecular Devices) set to excitation and emission wavelengths of 485 nm and 535 nm, respectively. Data was expressed as relative fluorescence % of treated vs. control.
# [6] = Copper chelating activity assay (pyrocatechol violet); format: physicochemical; conditions: PV dye method
# Method: Metal ion chelation activity can be detected by pyrocatechol violet indicator assay which is similar to that reported in other studies with some modifications [Baek, S-H. et al. 2015]. Briefly, 100 μl of sample containing different concentrations of solutes were mixed with 50 mM sodium acetate buffer (pH 6.0) in a 96 well plate. Control group consisted of buffer only; KA at 500 μM was used as a positive control. Copper sulfate (2 mM; 10 μl) was added to the samples and incubated for 10 minutes. 10 μl of 2 mM pyrocatechol violet was then added and the plate was further incubated for 20 minutes. The absorbance was read at 632 nm using a microplate reader (Versamax). Lower absorbance compared to control was indicative of copper chelation.
# HaCaT cells = conditions: human, 48 h, 10 μM
# Method: Briefly, 2×10^4 cells/well were seeded in 96-well plates and after 24 hours, the compounds at concentrations of 5-25 μM were added to the wells and incubated for 48 hours. Absorbance was read after 1 hour of incubation of plates and results were expressed as % of control.
# B16F10 cells = experiment: Melanin content quantification in B16F10 cells; format: cell-based, mouse; conditions: Mus musculus, B16-F10
# Method: B16F10 cells were seeded at 1×10^5 cells/well in 1.5 ml media in 12-well plates and incubated for 24 hours. […] For quantification of melanin content, cells were trypsinized and cell pellets were washed in PBS. Cell pellets were also visually observed for lightening of the intracellular pigment. After aspiration, 250 μL of 1N NaOH was added and heated to 70° C. to solubilize melanin. The aliquots were then transferred to a 96-well plate and absorbance was read at 475 nm using a microplate reader. A portion of the lysate was used to evaluate total protein content using BCA assay. The melanin absorbance was normalized by total protein content and expressed as % of control.
# [7] = system: B16F10 mouse melanoma cells; format: cell-based; conditions: for cell viability: mouse, 48 h
# Method: In order to test the four CMCs (CMC2.14, CMC2.24, CMC2.5 and CMC2.23) alongside PC and THC, for their effects on melanin content, we first screened their nontoxic concentrations using MTS cytotoxicity (Promega CellTiter Aqueous One) assay. MTS is a tetrazolium salt which is reduced to purple colored formazan upon reaction with mitochondrial dehydrogenases. Briefly, B16F10 cells were seeded at 4×10^3 cells/well in 96-well plates for 24 hrs. […] Controls were treated with 0.16% DMSO. At the end of 48 hours, medium was aspirated and replaced by 100 μl of fresh media. MTS (20 μl) was added and incubated for 40 minutes and absorbance read at 490 nm using a Versamax® microplate reader. Cell viability was calculated from the absorbance values relative to control groups and expressed in %.
# HEM-DP cells [8] = experiment: MTS cytotoxicity test with human epidermal melanocytes; format: cell-based; conditions: 5-25 μM, 48 hours
# Method: For screening cytotoxicity of PC, THC and CMCs during 48 hours incubation on HEM-DP cells, we conducted MTS cytotoxicity assay. […] MTS reagent was added and incubated for 90 minutes and absorbance was read at 490 nm. The results are expressed as % relative to control.
compound,measurement,setting,value
"O=c1cc(CO)occ1O [KA, kojic acid, reference compound]",reduction of melanin,[1],20%
same,reduction in melanin content,HEM-DP cells [2]; 1 mM,10%
"COc1cc(/C=C/C(=O)CC(=O)/C=C/c2ccc(O)c(OC)c2)ccc1O [PC, Curcumin]",inhibition of cellular tyrosinase activity,[3]; 5 μM,significantly (p<0.01) inhibited
same,inhibition of cellular tyrosinase activity,[3]; 10 μM,significantly (p<0.01) inhibited
same,inhibition of MITF protein levels,MITF,≤ 30%
same,cell viability,"[4]; 10 μM, MTS",71.9%
same,toxicity,[4]; range tested 5-25 μM,significantly toxic
same,reduction of intracellular ROS,"[5]; B16F10, 10 μM",24%
same,copper chelating activity,[6],did not show any effect
same,cell viability,HaCaT cells,90.12%
same,inhibition at 10 µM,"B16F10 cells; B16F10, 10 μM, 48 hours",32.1%
same,IC50,"B16F10 cells; B16F10 cells exposed for 48 hours, non-linear curve fitting, read-out: IC50-Melanin Inhibition",20.8 µM
same,effect on melanin content (words),HEM-DP cells [2]; nontoxic concentrations tested (PC 5 and 10 μM),did not show any significant difference
same,"cytotoxicity, overall ranking",[7],most cytotoxic
same,increase of cell proliferation,"[7]; B16F10, 5 μM, 48 hours, MTS",13%
same,cell viability,[7]; 20 μM,24.44%
same,cell viability,[7]; 25 μM,16.55%
"COc1cc(CCC(=O)CC(=O)CCc2ccc(O)c(OC)c2)ccc1O [THC, Tetrahydrocurcumin]",inhibition at 25 µM,[3]; 25 μM,24%
same,cytotoxicity,HEM-DP cells [8],nontoxic
same,reduction of intracellular ROS,"[5]; B16F10, 5 μM",24%
